Laboratory results taken from patent US20040192641A1, “Special preparation of anticancer drugs made by novel nanotechnology” (priority 2003, published 2004).
Marks after values point to notes of the source that are not given here.

Legend:
[1] = tested on: L1210 leukemia cells; assay: Anti-leukemia activity against lymphoid leukemia L1210 in mice (survival); format: in vivo; details: Example 54; i.p. once a day; dose 1, 10, 20 mg/kg/day, group not stated
Description: Animals: Adult DBA/2J male mice, 6 to 8 weeks old. All animals weighed approximately 25 g when used in experiments. Mice were assigned randomly to treatment and control groups. Each member of which received identical dosed (i.p.) of PK or 0.9% NaCl solution for all injections. Volumes were 0.01 ml/g body weight.
Tumor: L1210 or P388 leukemia cells induced in mice by inoculation with L1210 or P388 leukemia cells (1.0×10^5).
The leukemia cells were passed i.p. weekly. L1210 or P388 cells were cultured at 37° C. in RPMI-1640 medium (GIBCO) without antibiotics and supplemented with 10% fetal calf serum.
After the tumor implantation (1×10^5 leukemia cells), PK was injected intraperitoneally once a day. The treatment was started between the end of 2nd and 6th day after inoculation. Dose of PK was 25 mg/kg/day for PK groups. Control mice were treated with same value of 0-9% NaCl. Anti-leukemia activity was expressed as T/C %. T is median survival days of treated group and C is that of control group. A T/C value was greater that 100% means the treated mice is surviving longer than the control mice. […] The statistical significance of data was determined by student's test. […]
After the tumor implantation (1×10^5 leukemia cells), PK-HHT-SSL was injected intraperitoneally once a day. […] Anti-leukemia activity was expressed as T/C %. […] The statistical significance of data was determined by student's test.

[2] = tested on: gastric cancer cells; assay: Differentiation of gastric cancer cells; format: cell-based
Description: The gastric cancer cells and normal cells were cultured in PRMI 1640 medium supplement with 10% FCS serum. Other method is similar to example 1.

[3] = tested on: tyrosine kinase (TK); assay: Tyrosine kinase (TK) activity of HL-60 leukemia cells; format: cell-based, human; details: 24 hours
Description: H-60 leukemia cells were plated at a density of 5×10^5 cells in […], and divided control and treatments groups for incubation 24 hours at 37° C. with 5% CO2. The cells were collected and washed twice with phosphate-buffered saline and re-suspended at density of 10^6 cells/ml in 5 mM HEPEs buffer (pH 7.4). The cells were then re-suspended in 1 ml of buffer containing 5 mM HEPES (pH 7.6), 1 mM MgCl2 and 1 mM EDTA, then placed on ice bath. The cell membrane was disrupted by ultra sound and centrifuged at 1000×g for 10 minutes. The supernatant was ultra centrifuged at 30,000×g for 30 minutes at 4° C. The pellet was re-suspended in 0.3 ml of buffer containing 25 mM HEOES, centrifuged at 12,000×g for 5 minutes. The resulting supernatant was used for TK assay. Content of protein was determined. 10 μg of protein placed in 20 mM HEPES (pH 7.6), 15 mM MgCl2, 10 mM ZnCl2 and 5% (v/v) Nonidet P-40. After 5 minutes incubation at 25° C., the reaction was initiated by the addition of 25 μM [γ^32P] ATP (3 ci/mmol). After 10 minutes, the reaction was stopped by the addition of 20 mM cold ATP. […] Radioactivity was determined by liquid scintillation spectrometry. The net TK activity was determined after correcting for endogenous TK activity.

[4] = tested on: all cancer cells; assay: Inhibition of tumor cell proliferation, all cancer cells (statement); format: cell-based
Description: Human tumor cell lines: Hela leukemia HL-60, malignant melanocarcinoma B16, oral epidermoid carcinoma (KB), lung carcinoma (A549), breast carcinoma MCF-7, adenocarcinoma of stomach.
Animal tumor cell lines: Walker carcinoma, LLC-WRC-256, malignant melanoma (RMMI 1846), 3T3, and S-180 sarcoma (CCRF-180). All lines were routinely cultured in the RPMI1640 medium supplemented 20% fetal calf serum. The experiment was carried out in 96 microplate, each well had 5×10^5 cells and given desired concentration of 1 μg/ml (1×10^−6 g/ml) drug. Then the plate was incubated at 37° C. in an atmosphere of humidified air enriched with 5 percent carbon dioxide for 72 hours. Concentration of ELE or PK-ELE-NP is 50 ng/ml.
Inhibition percent rate of tumor cell proliferation was obtained according to the bellow formula. [formula]

## COC(=O)C[C@](O)(CCCC(C)(C)O)C(=O)O[C@@H]1C(OC)=C[C@]23CCCN2CCc2cc4c(cc2[C@H]13)OCO4 [HHT, Homoharringtonine]
[1]
  Survival time: 15.6 ± 2.8 days
[2]
  NBT (%): 58* %
  NSE (%): 60* %
[3]; Concentration 10^−6 M
  % of control activity (TK): 20.8%
[3]; Concentration 10^−7 M
  % of control activity (TK): 14.8%

## Eelemene
[4]
  Percent rates of inhibition: more than 70%
